# Biological target: T1, Full-length glucokinase (beta cell isoform) (Homo sapiens, UniProt P35557)
# T1 construct: Full-length glucokinase (beta cell isoform) was His-tagged at N-terminus; His tag (N); made in house; host or cells: E. coli BL21(DE3), pBCGK vector
# T1 sequence (P35557 1-465): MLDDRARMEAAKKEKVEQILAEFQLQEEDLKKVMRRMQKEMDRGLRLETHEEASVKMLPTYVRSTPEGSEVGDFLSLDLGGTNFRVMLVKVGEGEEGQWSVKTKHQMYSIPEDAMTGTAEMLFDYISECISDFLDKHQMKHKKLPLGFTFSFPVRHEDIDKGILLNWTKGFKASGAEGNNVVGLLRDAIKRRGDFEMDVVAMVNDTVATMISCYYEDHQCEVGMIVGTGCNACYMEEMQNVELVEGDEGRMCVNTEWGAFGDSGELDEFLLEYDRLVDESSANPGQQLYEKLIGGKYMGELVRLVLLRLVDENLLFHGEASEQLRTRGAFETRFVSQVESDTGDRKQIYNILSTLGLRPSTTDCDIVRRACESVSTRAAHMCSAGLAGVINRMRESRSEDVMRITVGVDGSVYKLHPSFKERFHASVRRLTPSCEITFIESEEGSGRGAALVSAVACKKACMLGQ
# Assay: Glucokinase activation assay (PK/LDH-coupled, NADH depletion at 340 nm)
# Type: biochemical
# Details: 5 mM glucose, single value or range where N>1; for EC50: 2.5 mM ATP, pH 7.1, room temperature, read-out: EC50; for Emax: % max activation = (Va/Vo−1)×100 from fit, pH 7.1, read-out: Maximum Activation (%)
# Method: Full-length glucokinase (beta cell isoform) was His-tagged at N-terminus and purified by a Ni column followed by size exclusion chromatography. A 320 mL column was packed in house using Superdex75 (Amersham Pharmacia, Carlsbad, Calif.) preparation grade resin. Glucose was obtained from Calbiochem (San Diego, Calif.) and other reagents were purchased from Sigma-Aldrich (St. Louis, Mo.).
# All assays were performed in a Corning 384-well plate using Spectramax PLUS spectrophotometer (Molecular Devices, Sunnyvale, Calif.) at room temperature. The final assay volume was 40 ∥L. The buffer conditions used in this assay were as follows: 50 mM HEPES, 5 mM glucose, 2.5 mM ATP, 3.5 mM MgCl2, 0.7 mM NADH, 2 mM dithiothreitol, 1 unit/mL pyruvate kinase/lactate dehydrogenase (PK/LDH), 0.2 mM phosphoenolpyruvate, and 25 mM KCl. The buffer pH was 7.1. The test compound in dimethylsulfoxide solution was added to the buffer and mixed by a plate shaker for 7.5 minutes. The final concentration of dimethylsulfoxide introduced into the assay was 0.25%.
# Glucokinase was added to the buffer mixture to initiate the reaction in the presence and absence of compound. The reaction was monitored by absorbance at 340 nm due to the depletion of NADH. The initial reaction velocity was measured by the slope of a linear time course of 0-300 seconds. The percentage of maximum activation was calculated by the following equation: % Maximum Activation=(Va/Vo−1)×100; wherein each of Va and Vo is defined as the initial reaction velocity in the presence and absence of the tested compound, respectively.
# The glucokinase activities were measured as a function of compound concentrations.
Compound,EC50 [µM],Emax [%]
"Cc1ccc(NC(=O)[C@H](CC2CCCO2)n2cnc(C(F)(F)F)c2)nc1 (mixture of isomers) [Example 82, (2S)—N-(5-methylpyridin-2-yl)-3-(tetrahydrofuran-2-yl)-2-(4-(trifluoromethyl)-1H-imidazol-1-yl)propanamide]",5,115
"Cc1ccc(NC(=O)[C@H](CC2CCCC2)n2cc(S(=O)(=O)C(C)C)cn2)nc1 [Example 1, (S)-3-cyclopentyl-2-(4-(isopropylsulfonyl)-1H-pyrazol-1-yl)-N-(5-methylpyridin-2-yl)propanamide]",0.3 to 0.6,38 to 50
"CC(C)S(=O)(=O)c1cnn([C@@H](CC2CCCC2)C(=O)Nc2cnccn2)c1 [Example 2, (S)-3-cyclopentyl-2-(4-(isopropylsulfonyl)-1H-pyrazol-1-yl)-N-(pyrazin-2-yl)propanamide]",9 to 16.5,84 to 90
"CC(C)S(=O)(=O)c1cnn([C@@H](CC2CCCC2)C(=O)Nc2ccc(C(F)(F)F)cn2)c1 [Example 3, (S)-3-cyclopentyl-2-(4-(isopropylsulfonyl)-1H-pyrazol-1-yl)-N-(5-(trifluoromethyl)pyridin-2-yl)propanamide]",0.7 to 1.9,15 to 23
"CC(C)S(=O)(=O)c1cnn([C@@H](CC2CCCC2)C(=O)Nc2ccncn2)c1 [Example 4, (S)-3-cyclopentyl-2-(4-(isopropylsulfonyl)-1H-pyrazol-1-yl)-N-(pyrimidin-4-yl)propanamide]",0.9 to 2.2,57 to 90
"CC(C)S(=O)(=O)c1cnn([C@@H](CC2CCCC2)C(=O)Nc2ncccn2)c1 [Example 5, (S)-3-cyclopentyl-2-(4-(isopropylsulfonyl)-1H-pyrazol-1-yl)-N-(pyrimidin-2-yl)propanamide]",> 100,
"Cc1cnc(NC(=O)[C@H](CC2CCCC2)n2cc(S(=O)(=O)C(C)C)cn2)cn1 [Example 6, (S)-3-cyclopentyl-2-(4-(isopropylsulfonyl)-1H-pyrazol-1-yl)-N-(5-methylpyrazin-2-yl)propanamide]",4.8 to 5.6,70 to 76
"CC(C)S(=O)(=O)c1cnn([C@@H](CC2CCCC2)C(=O)Nc2ccn(C)n2)c1 [Example 7, (S)-3-cyclopentyl-2-(4-(isopropylsulfonyl)-1H-pyrazol-1-yl)-N-(1-methyl-1H-pyrazol-3-yl)propanamide]",3.5 to 6,39 to 40
"Cc1ccc(NC(=O)[C@H](CC2CCCC2)n2cc(S(C)(=O)=O)cn2)nc1 [Example 8, (S)-3-cyclopentyl-N-(5-methylpyridin-2-yl)-2-(4-(methylsulfonyl)-1H-pyrazol-1-yl)propanamide]",3.8,100
"Cn1ccc(NC(=O)[C@H](CC2CCCC2)n2cc(S(C)(=O)=O)cn2)n1 [Example 9, (S)-3-cyclopentyl-N-(1-methyl-1H-pyrazol-3-yl)-2-(4-(methylsulfonyl)-1H-pyrazol-1-yl)propanamide]",55,174
"CS(=O)(=O)c1cnn([C@@H](CC2CCCC2)C(=O)Nc2ccc(C(F)(F)F)cn2)c1 [Example 10, (S)-3-cyclopentyl-2-(4-(methylsulfonyl)-1H-pyrazol-1-yl)-N-(5-(trifluoromethyl)pyridin-2-yl)propanamide]",4.8,56
"CCn1ccc(NC(=O)[C@H](CC2CCCC2)n2cc(S(C)(=O)=O)cn2)n1 [Example 11, (S)-3-cyclopentyl-N-(1-ethyl-1H-pyrazol-3-yl)-2-(4-(methylsulfonyl)-1H-pyrazol-1-yl)propanamide]",32,110
"CS(=O)(=O)c1cnn([C@@H](CC2CCCC2)C(=O)Nc2ccn(Cc3ccccc3)n2)c1 [Example 12, (S)—N-(1-benzyl-1H-pyrazol-3-yl)-3-cyclopentyl-2-(4-(methylsulfonyl)-1H-pyrazol-1-yl)propanamide]",> 100,
"CS(=O)(=O)c1cnn([C@@H](CC2CCCC2)C(=O)Nc2ccncn2)c1 [Example 13, (S)-3-cyclopentyl-2-(4-(methylsulfonyl)-1H-pyrazol-1-yl)-N-(pyrimidin-4-yl)propanamide]",32,100
"Cc1cnc(NC(=O)[C@H](CC2CCCC2)n2cc(S(C)(=O)=O)cn2)cn1 [Example 14, (S)-3-cyclopentyl-N-(5-methylpyrazin-2-yl)-2-(4-(methylsulfonyl)-1H-pyrazol-1-yl)propanamide]",11,122
"CC(C)S(=O)(=O)c1cnn([C@@H](CC2CCCC2)C(=O)Nc2ccon2)c1 [Example 15, (S)-3-cyclopentyl-2-(4-(isopropylsulfonyl)-1H-pyrazol-1-yl)-N-(isoxazol-3-yl)propanamide]",60,89
"CC(C)S(=O)(=O)c1cnn([C@@H](CC2CCCC2)C(=O)Nc2ccccn2)c1 [Example 16, (S)-3-cyclopentyl-2-(4-(isopropylsulfonyl)-1H-pyrazol-1-yl)-N-(pyridin-2-yl)propanamide]",1.9,48
"CC(C)S(=O)(=O)c1cnn([C@@H](CC2CCCC2)C(=O)Nc2ccc3ccccc3n2)c1 [Example 17, (S)-3-cyclopentyl-2-(4-(isopropylsulfonyl)-1H-pyrazol-1-yl)-N-(quinolin-2-yl)propanamide]",8.2,23
"CCn1ccc(NC(=O)[C@H](CC2CCCC2)n2cc(S(=O)(=O)C(C)C)cn2)n1 [Example 18, (S)-3-cyclopentyl-N-(1-ethyl-1H-pyrazol-3-yl)-2-(4-(isopropylsulfonyl)-1H-pyrazol-1-yl)propanamide]",15.7,24
"CC(C)S(=O)(=O)c1cnn([C@@H](CC2CCCC2)C(=O)Nc2ccn(Cc3ccccc3)n2)c1 [Example 19, (S)—N-(1-benzyl-1H-pyrazol-3-yl)-3-cyclopentyl-2-(4-(isopropylsulfonyl)-1H-pyrazol-1-yl)propanamide]",1.3 to 1.7,33 to 39
"CCS(=O)(=O)c1cnn([C@@H](CC2CCCC2)C(=O)Nc2ccn(C)n2)c1 [Example 20, (S)-3-cyclopentyl-2-(4-(ethylsulfonyl)-1H-pyrazol-1-yl)-N-(1-methyl-1H-pyrazol-3-yl)propanamide]",7.2,80
"CCS(=O)(=O)c1cnn([C@@H](CC2CCCC2)C(=O)Nc2ccc(C)cn2)c1 [Example 21, (S)-3-cyclopentyl-2-(4-(ethylsulfonyl)-1H-pyrazol-1-yl)-N-(5-methylpyridin-2-yl)propanamide]",2.9,65
"CCS(=O)(=O)c1cnn([C@@H](CC2CCCC2)C(=O)Nc2cnc(C)cn2)c1 [Example 22, (S)-3-cyclopentyl-2-(4-(ethylsulfonyl)-1H-pyrazol-1-yl)-N-(5-methylpyrazin-2-yl)propanamide]",25,144
"CS(=O)(=O)c1cnn([C@@H](CC2CCCC2)C(=O)Nc2ccc(C(=O)O)cn2)c1 [Example 24, (S)-6-(3-cyclopentyl-2-(4-(methylsulfonyl)-1H-pyrazol-1-yl)propanamido)nicotinic acid]",7,145
"Cc1ccc(NC(=O)[C@H](CC2CCCC2)n2cnc(S(C)(=O)=O)n2)nc1 [Example 25, (S)-3-cyclopentyl-N-(5-methylpyridin-2-yl)-2-(3-(methylsulfonyl)-1H-1,2,4-triazol-1-yl)propanamide]",3.9,116
